Measured values taken from US10183011B2, “Anti-depression compounds” (Board of Regents of the University of Texas System, priority 2009, dated 2019).

What was measured:
[1] = system: newborn cells in the dentate gyrus; assay: Chronic social defeat stress (CSDS): DG cellular proliferation (BrdU) and apoptosis (AC3); type: in vivo, mouse (Ghsr-null and wild-type)
Source text: FIG. 40. Effects of P7C3 on DG cellular proliferation and apoptosis following CSDS. (a) Protocol schematic. (b-e) BrdU-immunoreactive and AC3-immunoreactive cell counts in the dorsal and ventral DG of CSDS-exposed and non-CSDS-exposed mice treated with P7C3 vs. vehicle. Group sizes indicated. (f-k) Representative photomicrograph images of double-immunolabeled (BrdU and AC3) ventral DG sections. (l-q) Magnified images of immunoreactive cells (AC3, leftward-facing arrow; BrdU, rightward-facing arrow). Scale bar in (k; 100 μm) pertains to (f-k), in (q; 25 μm) pertains to (l-q). *P<0.05, **P<0.01, ***P<0.001, as compared to respective non-CSDS-exposed, vehicle-treated control group.
It was next investigated whether protecting neural precursor cells from CSDS-associated apoptosis might help protect against the depressive-like phenotype. To test this idea, P7C3 was utilized, a neuroprotective aminopropyl carbazole that elevates hippocampal neurogenesis by blocking apoptosis without affecting the proliferation rate of hippocampal neural precursor cells in the dentate gyrus. A twice-daily schedule of intraperitoneal P7C3 injections (20 mg/kg/d in divided doses) was initiated two days prior to CSDS and continued throughout the 10 day procedure for both wild-type and Ghsr-null littermates. […]
CSDS was performed similar to methods used previously in the lab (J. C. Chuang et al., Ghrelin mediates stress-induced food-reward behavior in mice. J Clin Invest 121, 2684 (2011)). […] Ethovision 3.0 software (Noldus, Leesburg, Va.) measured the duration spent in the interaction zone or in the corners. […]
Immunohistochemistry and quantification were performed as described previously (J. C. Chuang et al., Ghrelin mediates stress-induced food-reward behavior in mice. J Clin Invest 121, 2684 (2011); J. E. Malberg et al., Chronic antidepressant treatment increases neurogenesis in adult rat hippocampus. J Neurosci 20, 9104 (2000); A. A. Pieper et al., Discovery of a proneurogenic, neuroprotective chemical. Cell 142, 39 (2010)). […]

[2] = system: Ghsr-null and wild-type mice; assay: Caloric restriction: DG apoptosis (AC3) and forced swim test; type: in vivo, mouse
Source text: FIG. 42. Effects of P7C3 on caloric restriction-induced DG cell survival and antidepressant-like behavior, as measured by FST. (a) Protocol schematic. (b, c) AC3-immunoreactive cell counts in the DG of calorie-restricted and ad libitum-fed mice treated with P7C3 vs. vehicle. (d, e) FST immobility time. Group sizes indicated. (f-k) Representative photomicrograph images of AC3-immunolabeled ventral DG sections. (l-p) Magnified images of AC3-immunoreactive cells. Scale bar in (k; 150 μm) pertains to (f-k), in (p; 25 μm) pertains to (l-p). *P<0.05, **P<0.01, as compared to respective ad libitum-fed, vehicle-treated control group. ^#P<0.05, comparing compound treatment.
Prolonged caloric restriction in wild-type mice elicits an antidepressant-like response in the FST (decreased immobility), whereas this effect is not observed in Ghsr-null mice. To investigate whether this might be related to differences in apoptosis in the DG, similar to that observed above following CSDS, Ghsr-null and wild-type littermates were exposed to ad libitum food access vs. 60% caloric restriction for 10 days. Five days prior to this exposure and throughout the 10-day feeding period, mice received either P7C3 or vehicle. On Day 16, FST performance was assessed, followed by sacrifice of the animals for quantification of AC3+ cells in the DG (FIG. 42, panel a).
The 60% calorie restriction protocol was performed as previously (M. Lutter et al., The orexigenic hormone ghrelin defends against depressive symptoms of chronic stress. Nat Neurosci 11, 752 (2008)). Mice received twice-daily injections of either P7C3 (20 mg/kg/d in divided doses) or vehicle 5 days prior to and during 10 days of calorie restriction or ad-lib feeding, replicating the injection protocol used for the CSDS studies. On Day 16, the forced swim test was performed for each mouse as done previously.

HeLa cells = assay: Toxicity to HeLa cells; type: cell-based
hERG channel = hERG channel (Homo sapiens, UniProt Q12809); assay: hERG channel binding
[3] = caloric-restricted Ghsr-null mice
[4] = caloric-restricted wild-type mice

Chain of hERG channel (Q12809 whole entry): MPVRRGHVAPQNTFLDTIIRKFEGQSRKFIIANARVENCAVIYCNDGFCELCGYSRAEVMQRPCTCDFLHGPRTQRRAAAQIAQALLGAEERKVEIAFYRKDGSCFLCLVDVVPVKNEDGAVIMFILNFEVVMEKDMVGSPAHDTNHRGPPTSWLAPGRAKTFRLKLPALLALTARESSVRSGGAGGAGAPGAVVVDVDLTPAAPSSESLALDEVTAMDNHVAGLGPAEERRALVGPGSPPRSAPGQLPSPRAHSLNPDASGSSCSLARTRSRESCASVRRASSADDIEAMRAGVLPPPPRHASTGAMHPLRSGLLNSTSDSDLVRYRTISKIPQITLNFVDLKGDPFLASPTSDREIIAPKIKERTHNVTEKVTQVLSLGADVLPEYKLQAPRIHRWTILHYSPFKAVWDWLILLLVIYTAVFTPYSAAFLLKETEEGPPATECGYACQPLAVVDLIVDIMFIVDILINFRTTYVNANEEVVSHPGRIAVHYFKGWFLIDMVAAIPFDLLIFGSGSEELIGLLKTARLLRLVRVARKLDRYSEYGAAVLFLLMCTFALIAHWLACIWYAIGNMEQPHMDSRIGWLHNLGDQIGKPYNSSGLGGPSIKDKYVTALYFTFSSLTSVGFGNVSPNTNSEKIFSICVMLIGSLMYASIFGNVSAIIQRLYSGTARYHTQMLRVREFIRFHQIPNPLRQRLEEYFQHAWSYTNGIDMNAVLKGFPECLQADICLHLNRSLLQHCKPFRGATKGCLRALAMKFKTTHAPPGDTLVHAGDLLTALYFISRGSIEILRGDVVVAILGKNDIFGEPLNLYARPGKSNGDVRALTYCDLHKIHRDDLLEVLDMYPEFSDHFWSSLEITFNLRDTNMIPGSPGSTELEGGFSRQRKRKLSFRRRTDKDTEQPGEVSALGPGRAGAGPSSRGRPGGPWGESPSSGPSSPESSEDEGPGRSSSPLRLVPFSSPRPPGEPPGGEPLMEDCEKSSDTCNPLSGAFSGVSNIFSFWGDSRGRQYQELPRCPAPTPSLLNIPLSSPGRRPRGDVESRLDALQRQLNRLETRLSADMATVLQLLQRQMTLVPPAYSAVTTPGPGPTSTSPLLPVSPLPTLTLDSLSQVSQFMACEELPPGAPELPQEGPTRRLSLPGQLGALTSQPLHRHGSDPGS

Structure (SMILES) | AC3+ cells in the ventral DG after CSDS ([1]; 20 mg/kg/d i.p. in divided doses) | BrdU+ cells in the DG after CSDS ([1]; 20 mg/kg/d i.p. in divided doses, wild type and Ghsr-null mice) | BrdU or AC3 immunoreactivity in the DG ([1]; non-stressed control animals) | AC3+ cells in the DG [2, 3] | FST immobility [2, 3] | AC3+ cells in the DG [2, 4] | FST immobility [2, 4] | toxicity to HeLa cells (HeLa cells) | hERG channel binding (hERG channel)
OC(CNc1ccccc1)Cn1c2ccc(Br)cc2c2cc(Br)ccc21 (stereo not drawn) [Example P7C3] | blocked by P7C3 administration | preserved normal levels of neurogenesis throughout both dorsal and ventral regions of the DG | did not significantly augment BrdU or AC3 immunoreactivity | blocked the increase in apoptosis observed after caloric restriction | significantly decrease immobility | did not further reduce the number of AC3+ cells | had no further effect on reducing immobility |  | 
COc1cccc(NCC(F)Cn2c3ccc(Br)cc3c3cc(Br)ccc32)c1 (stereo not drawn) [Example P7C3A20, N-(3-(3,6-dibromo-9H-carbazol-9-yl)-2-fluoropropyl)-3-methoxyaniline] |  |  |  |  |  |  |  | no hERG channel binding, histamine receptor binding or toxicity to HeLa cells | no hERG channel binding
